What was measured:
HCCLM9 = assay: Antiproliferative activity against human HCCLM9 cells assessed as inhibition of cell growth measured after 72 hrs by MTT assay; type: functional, cell-based; conditions: HCCLM9, 72 h
SK-HEP1 = assay: Antiproliferative activity against human SK-HEP1 cells assessed as inhibition of cell growth measured after 72 hrs by MTT assay; type: functional, cell-based; conditions: SK-HEP1, 72 h
Huh-7 [1] = assay: Antiproliferative activity against human Huh-7 cells assessed as inhibition of cell growth measured after 72 hrs by MTT assay; type: functional, cell-based; conditions: Huh-7, 72 h
HepG2 = assay: Antiproliferative activity against human HepG2 cells assessed as inhibition of cell growth measured after 72 hrs by MTT assay; type: functional, cell-based; conditions: HepG2, 72 h
Huh-7 [2] = assay: Antitumor activity against human Huh-7 cells xenografted in BALB/c mouse assessed as tumor growth inhibition at 15 mg/kg, ip qd measured after 14 days; type: functional; conditions: Huh-7, 336 h, time 14 day, read-out: TGI

SMILES	IC50 (HCCLM9) [µM]	IC50 (SK-HEP1) [µM]	IC50 (Huh-7 [1]) [µM]	IC50 (HepG2) [µM]	inhibition in vivo at 15 mg/kg (Huh-7 [2]) [%]
CC(=O)Oc1ccc(/C=C/c2nccc3ccccc23)cc1	35.1	23.4	15.4	20.6	–
Oc1ccc(/C=C/c2nccc3ccccc23)cc1	29.9	> 40	11.9	> 40	–
N#Cc1ccccc1/C=C/c1nccc2ccccc12	10.8	11.7	4.52	17.4	–
Nc1cccc(/C=C/c2nccc3ccccc23)c1	30.9	> 40	14.1	8.66	–
CNC(=O)c1cc(Oc2ccc(NC(=O)Nc3ccc(Cl)c(C(F)(F)F)c3)cc2)ccn1 [SORAFENIB]	9.21	8.63	9.48	9.03	77
COc1cccc(/C=C/c2nccc3ccccc23)c1	20.4	33	15.1	10.8	–
N#Cc1cccc(/C=C/c2nccc3ccccc23)c1	> 40	> 40	12.2	> 40	–
Oc1cccc(/C=C/c2nccc3ccccc23)c1	> 40	> 40	24.7	20.4	–
Oc1ccc(/C=C/c2cc(O)cc(O)c2)cc1 [RESVERATROL]	> 40	> 40	> 40	> 40	–
Nc1ccccc1/C=C/c1nccc2ccccc12	> 40	26.1	> 40	25.3	–
COc1ccccc1/C=C/c1nccc2ccccc12	37.6	37.6	23.9	26.8	–
Oc1ccccc1/C=C/c1nccc2ccccc12	13.6	17.1	6.07	8.92	–
C#Cc1ccccc1/C=C/c1nccc2ccccc12	> 40	39.2	24.8	31	–
Nc1ccc(/C=C/c2nccc3ccccc23)cc1	16.1	> 40	17.3	23.4	–
CC(=O)Oc1cccc(/C=C/c2nccc3ccccc23)c1	28.6	14.3	11.6	14.5	–
C(=C\c1nccc2ccccc12)/c1ccc(-c2ccccc2)cc1	> 40	> 40	> 40	> 40	–
COc1ccc(/C=C/c2nccc3ccccc23)cc1	> 40	> 40	15.8	18.1	–
N#Cc1ccc(/C=C/c2nccc3ccccc23)cc1	30.7	> 40	5.61	> 40	–
C#Cc1ccc(/C=C/c2nccc3ccccc23)cc1	> 40	> 40	12.9	> 40	–
O=c1[nH]cc(F)c(=O)[nH]1 [FLUOROURACIL]	27.2	> 40	8.98	29.4	–

Reference: ChEMBL document CHEMBL5370544, “Design, synthesis, and biological evaluation of 1-styrenyl isoquinoline derivatives for anti-hepatocellular carcinoma activity and effect on mitochondria” (Eur J Med Chem, 2023)
